Results published in PMC9650428, “Mutagenesis and functional analysis of SotB: A multidrug transporter of the major facilitator superfamily from Escherichia coli” (Frontiers in Microbiology, 2022).
Residue numbers refer to the chain shown, from its start. Read-outs that look alike come from different tables or passages of the source.

Legend:
MdfA = biological target: MdfA; design: method as in Heng et al., 2015; details: ref Heng et al., 2015; read-out: Binding affinity between MdfA and the substrate; cited from earlier work
SotB [1] = biological target: T1, SotB (Escherichia coli, UniProt P31122); experiment: SPR affinity assay, wild-type SotB; format: binding
T1 construct: The full-length sotB and lapC genes from the E. coli MG1655 genome were subcloned into the cloning vector pET28a; 8xHis (C); made in house; host or cells: E. coli C43(DE3)
T1 sequence (P31122 whole entry): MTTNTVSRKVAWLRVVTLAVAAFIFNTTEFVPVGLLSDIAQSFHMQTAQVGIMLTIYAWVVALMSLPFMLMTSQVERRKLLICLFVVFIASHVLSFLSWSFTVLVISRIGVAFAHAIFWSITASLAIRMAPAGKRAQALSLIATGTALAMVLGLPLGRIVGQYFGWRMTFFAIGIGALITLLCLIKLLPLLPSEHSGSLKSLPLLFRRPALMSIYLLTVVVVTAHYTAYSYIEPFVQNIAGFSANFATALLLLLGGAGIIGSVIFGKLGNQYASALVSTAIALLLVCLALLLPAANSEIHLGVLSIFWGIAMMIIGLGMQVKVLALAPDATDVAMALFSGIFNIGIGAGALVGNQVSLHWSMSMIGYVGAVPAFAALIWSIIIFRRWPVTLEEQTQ
Experimental: (§1) The instrument used in surface plasmon resonance (SPR) affinity assays was OpenSPR (Nicoya, Canada) and the chip used was COOH sensor chip (Nicoya, Canada). SotB and its variants were as ligands. IPTG, L-arabinose, D-xylose, D-glucose, D-fructose, and D-mannose were as small molecules. Using HSB-EP buffer (10 mM HEPES, 150 mM NaCl, 3 mM EDTA, 0.005% Tween-20, pH7.4) as test buffer and setting flow rate 150 μl/min after installed COOH chip according to OpenSPRTM instrument standard operating procedure. After the signal baseline was reached, loading 200 μl 80% isopropyl alcohol and ran for 10 s to drain bubbles. After reaching baseline, the sample ring was rinsed with HSB-EP buffer and emptied with air. After the signal reached the baseline, loading 200 μl EDC (400 mM, Sigma)/NHS (100 mM, Sigma; 1:1) solution with a flow rate 20 μl/min for 4 min. Then, loading 200 μl ligand (SotB/SotB variants) diluted by the activation buffer (sodium acetate, 10 mM, pH3.5) and ran for 4 min (20 μl/min). Then the sample ring was rinsed with HSB-EP buffer and emptied with air. Loading 200 μl 1 M ethanolamine (Sigma) blocking solution (20 μl/min, 4 min), rinsed the sample ring with HSB-EP buffer, and emptied the sample ring with air. Observing baseline for 5 min to ensure stability. The small molecules were diluted with PBS buffer (2 mM of KH2PO4, 10 mM of Na2HPO4, 2.7 mM of KCl, and 137 mM of NaCl at pH 7.4), and the concentration was shown in the experimental results. The flow rate for small molecules was performed at 20 μl/min. The binding time of small molecule and ligand was 240 s, and the dissociation was 240 s. The analysis software used for the experimental results was TraceDrawer, and the analysis method was one-to-one analysis model.

SotB [2] = biological target: T1, SotB; details: ref Koita and Rao, 2012; cited from earlier work
XlyE = biological target: XlyE; design: method as in Sun et al., 2012; details: ref Sun et al., 2012; read-out: Binding affinity between XlyE and its substrate; cited from earlier work
[3] = system: intact E. coli MG1655 strain; experiment: Growth curve (L-arabinose inhibition / D-xylose competition) assay, intact MG1655; format: cell-based, Escherichia coli
Description: In the process of sotB gene knockout, two plasmids were introduced into E. coli MG1655 strain: the plasmid pEcCas expressing Cas9 protein (kanamycin resistance) and the plasmid pEcgRNA/sotB expressing related gRNA (spectinomycin resistance). The pEcCas plasmid was successfully eliminated in this study. […] Thus, the sotB-deletion strain has resistance to spectinomycin. In order to carry out the related L-arabinose inhibition assay more strictly, the same plasmid (pEcgRNA/sotB) was then transformed into intact E. coli MG1655 cells, and the growth conditions of the two strains were measured as follows: The E. coli MG1655 cells (intact cells and sotB-deletion cells) were grown in liquid LB medium containing spectinomycin (50 μg/ml) at 37°C for overnight. The cells were then diluted to an OD600 value of 0.8 with liquid LB medium containing spectinomycin (50 μg/ml). Then, the cells were further diluted 1,000 times with liquid LB medium containing spectinomycin (50 μg/ml). The diluted cells were added to a 96-well plate (200 μl/well). Then, L-arabinose was added with final concentrations of 0 μM, 10 μM, 100 μM, 1 mM, 10 mM, and 100 mM, respectively. The 96-well plate was incubated at 37°C, and the OD600 value was measured every 1 h with a microplate reader. For the competition assay, the intact MG1655 cells diluted 1,000 times were divided into two parts and then added into 96-well plate (200 μl/well). One part was directly added with D-xylose at a final concentration of 0, 1, and 10 mM, respectively; the other part was first added with L-arabinose at a final concentration of 10 mM, then D-xylose was added with final concentrations of 0, 1, and 10 mM, respectively. The method of growth curve measurement is the same as above. All the experiments were repeated at least three times.

SotB H115A = biological target: T2, SotB H115A (Escherichia coli, UniProt P31122, H115A); experiment: SPR affinity assay, SotB variant H115A; format: binding; details: SotB variant H115A, read-out: KD, binding affinity with H115A
T2 construct: The full-length sotB and lapC genes from the E. coli MG1655 genome were subcloned into the cloning vector pET28a; 8xHis (C); made in house; host or cells: E. coli C43(DE3)
T2 sequence (P31122 1-396 H115A): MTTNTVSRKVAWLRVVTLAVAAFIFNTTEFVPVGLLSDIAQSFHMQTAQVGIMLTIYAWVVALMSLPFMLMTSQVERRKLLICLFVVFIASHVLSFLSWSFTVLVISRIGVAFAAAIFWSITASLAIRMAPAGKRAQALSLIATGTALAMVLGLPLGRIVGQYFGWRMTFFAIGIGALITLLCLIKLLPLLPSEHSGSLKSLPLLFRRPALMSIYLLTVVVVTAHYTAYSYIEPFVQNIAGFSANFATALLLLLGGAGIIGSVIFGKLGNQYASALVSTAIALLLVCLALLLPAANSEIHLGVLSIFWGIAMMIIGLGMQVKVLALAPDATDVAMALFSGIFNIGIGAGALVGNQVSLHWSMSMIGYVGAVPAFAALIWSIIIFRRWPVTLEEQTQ
Experimental: as §1

SotB N343A = biological target: T3, SotB N343A (Escherichia coli, UniProt P31122, N343A); experiment: SPR affinity assay, SotB variant N343A; format: binding; details: SotB variant N343A, read-out: KD, binding affinity with N343A
T3 construct: The full-length sotB and lapC genes from the E. coli MG1655 genome were subcloned into the cloning vector pET28a; 8xHis (C); made in house; host or cells: E. coli C43(DE3)
T3 sequence (P31122 1-396 N343A): T2 sequence (P31122 1-396 H115A) with A115H, N343A
Experimental: as §1

SotB S339A = biological target: T4, SotB S339A (Escherichia coli, UniProt P31122, S339A); experiment: SPR affinity assay, SotB variant S339A; details: read-out: KD, binding affinity with S339A
T4 construct: The full-length sotB and lapC genes from the E. coli MG1655 genome were subcloned into the cloning vector pET28a; 8xHis (C); made in house; host or cells: E. coli C43(DE3)
T4 sequence (P31122 1-396 S339A): T2 sequence (P31122 1-396 H115A) with A115H, S339A
Experimental: as §1, with “The small molecules were diluted with PBS buffer (2 mM of KH2PO4, 10 mM of Na2HPO4, 2.7 mM of KCl, and 137 mM of NaCl at pH 7.4), and the concentration was shown in the experimental results. The flow rate for small molecules was performed at 20 μl/min. The binding time of small molecule and ligand was 240 s, and the dissociation was 240 s. The analysis software used for the experimental results was TraceDrawer, and the analysis method was one-to-one analysis model.” left out

SotB E29A = biological target: T5, SotB E29A (Escherichia coli, UniProt P31122, E29A); experiment: SPR affinity assay, SotB variant E29A; details: read-out: KD, binding affinity with E29A
T5 construct: The full-length sotB and lapC genes from the E. coli MG1655 genome were subcloned into the cloning vector pET28a; 8xHis (C); made in house; host or cells: E. coli C43(DE3)
T5 sequence (P31122 1-396 E29A): T2 sequence (P31122 1-396 H115A) with E29A, A115H
Experimental: as §1, with “The small molecules were diluted with PBS buffer (2 mM of KH2PO4, 10 mM of Na2HPO4, 2.7 mM of KCl, and 137 mM of NaCl at pH 7.4), and the concentration was shown in the experimental results. The flow rate for small molecules was performed at 20 μl/min. The binding time of small molecule and ligand was 240 s, and the dissociation was 240 s. The analysis software used for the experimental results was TraceDrawer, and the analysis method was one-to-one analysis model.” left out

SotB W119A = biological target: T6, SotB W119A (Escherichia coli, UniProt P31122, W119A); experiment: SPR affinity assay, SotB variant W119A; details: read-out: KD, binding affinity with W119A
T6 construct: The full-length sotB and lapC genes from the E. coli MG1655 genome were subcloned into the cloning vector pET28a; 8xHis (C); made in house; host or cells: E. coli C43(DE3)
T6 sequence (P31122 1-396 W119A): T2 sequence (P31122 1-396 H115A) with A115H, W119A
Experimental: as §1, with “The small molecules were diluted with PBS buffer (2 mM of KH2PO4, 10 mM of Na2HPO4, 2.7 mM of KCl, and 137 mM of NaCl at pH 7.4), and the concentration was shown in the experimental results. The flow rate for small molecules was performed at 20 μl/min. The binding time of small molecule and ligand was 240 s, and the dissociation was 240 s. The analysis software used for the experimental results was TraceDrawer, and the analysis method was one-to-one analysis model.” left out

FucP = biological target: FucP; design: method as in Dang et al., 2010; details: ref Dang et al., 2010; read-out: Binding affinity between FucP and the substrate; cited from earlier work
MelB = biological target: MelB; design: method as in Ethayathulla et al., 2014; details: ref Ethayathulla et al., 2014; read-out: Binding affinity between MelB and the substrate; cited from earlier work
SotB [4] = biological target: T1, SotB; experiment: Cell based radiotracer uptake assay; details: E. coli C43(DE3), 0.1 μM tracer, 1 h, p < 0.01
Experimental: The cell-based uptake assay was performed with the following protocol. Plasmids pET28a and pET28a/sotB were transformed into E. coli C43(DE3) competent cells, respectively. Then, these two kinds of cells were grown in LB medium at 37°C and induced with 0.2 mM IPTG for 1 h, when the cell density reached an OD600 of about 1.5. Cells were then harvested by centrifugation. After being washed three times with MK buffer (150 mM KCl, 5 mM MES, pH 6.5), the cells were resuspended in the same buffer to an OD600 of 2.0. To measure the transport activity of SotB protein, took 5 ml of the above cell suspension, respectively, and added ^3H-L-arabinose (American Radiolabeled Chemicals) at a final concentration of 0.1 μM. All the reactions lasted 1 h and were stopped by diluting the cell suspension with 5 ml ice-cold MK buffer. Cells were then harvested by centrifugation. After being washed three times with ddH2O, the cells were resuspended in 5 ml ddH2O, respectively. Then the cells were added to the sample bottle, respectively, and mixed with the same volume of excess scintillation, and then taken for liquid scintillation counting. All the experiments were repeated at least three times.

[5] = SPR, wild-type SotB immobilised, one-to-one model, read-out: KD (equilibrium dissociation constant), binding affinity with SotB

O=C(N[C@H](CO)[C@H](O)c1ccc([N+](=O)[O-])cc1)C(Cl)Cl [Chloramphenicol]
Kd (MdfA): 0.075 mM

O=C(CO)[C@@H](O)[C@H](O)[C@H](O)CO [D-fructose]
Kd (SotB [1]): 6.6 mM

OC[C@H]1OC(O)[C@H](O)[C@@H](O)[C@@H]1O (stereo partly drawn) [D-glucose]
Kd (SotB [1]; [5]): 2.6 mM

OC[C@H]1OC(O)[C@@H](O)[C@@H](O)[C@@H]1O (stereo partly drawn) [D-mannose]
Kd (SotB [1]; [5]): 3.1 mM

O=C[C@H](O)[C@@H](O)[C@H](O)CO [D-xylose]
Transport by SotB (SotB [2]): cannot transport
Kd (XlyE): 0.35 mM
Binding affinity to SotB, fold higher than that of L-arabinose to SotB (SotB [1]; SPR, wild-type SotB): 8.7 fold
Kd (SotB [1]; [5]): 0.47 mM
Effect on growth (OD600 growth curve) ([3]; intact MG1655, 1 mM D-xylose, without L-arabinose): did not cause any growth inhibition
Effect on growth (OD600 growth curve) ([3]; intact MG1655, 10 mM D-xylose in the presence of 10 mM L-arabinose): inhibit the growth
Effect on growth (OD600 growth curve) ([3]; intact MG1655, 10 mM D-xylose, without L-arabinose): did not cause any growth inhibition

CC(C)S[C@@H]1O[C@H](CO)[C@H](O)[C@H](O)[C@H]1O [IPTG, isopropyl-β-D-1-thiogalactopyranoside]
Kd (SotB H115A): 13.7 mM
Kd (SotB N343A): 15 mM
Binding affinity with SotB, fold lower than that of L-arabinose with SotB (SotB [1]; SPR, wild-type SotB): ~2.5 fold
Kd (SotB [1]; [5]): 10.2 mM
Kd (SotB S339A): 7.6 mM
Kd (SotB E29A): 7.6 mM
Kd (SotB W119A): 6.7 mM

C[C@H](O)[C@@H](O)[C@@H](O)[C@H](O)C=O [fucose]
Kd (FucP): 0.47 mM

OC[C@H]1O[C@H](OCC2O[C@@H](O)[C@H](O)[C@@H](O)[C@@H]2O)[C@H](O)[C@@H](O)[C@H]1O (stereo partly drawn) [melibiose]
Kd (MelB): 1 mM

^3H-L-arabinose
Accumulation in cells expressing wild-type SotB relative to empty vector pET28a (SotB [4]): significant reduced accumulation
